EP0908457B1, “3-(1,2-benzisothiazol- and isoxazol-5-Y1)-2,4(1H,3H)-pyrimidinedione or thione and 3-(1,2-benzisothiazol- and isoxazol-5-y1)-4(3H)-pyrimidinone or thione herbicidal agents” (BASF AKTIENGESELLSCHAFT, priority 1997, dated 1999)

Key:
Assay type in all cases: in vivo
[1] = system: Cyperus serotinus, Rottb.; test: Preemergence weed control under flooded paddy conditions, CYPSE (Flatsedge)
Cyperus iria = test: Preemergence weed control under flooded paddy conditions, CYPIR (Rice Flatsedge); conditions: flooded paddy
[2] = system: Echinochloa oryzoides (Ard.) Fritsch.; test: Preemergence weed control under flooded paddy conditions, ECHORC (Watergrass (Calif.)); conditions: flooded paddy
Sagittaria pygmaea, L. = test: Preemergence weed control under flooded paddy conditions, SAGPY (Arrowhead (Pygmaea)); conditions: flooded paddy
[3] = system: Monochoria vaginalis, Presl.; test: Preemergence weed control under flooded paddy conditions, MOOVA (Monochoria); conditions: flooded paddy
[4] = Rate 0.0320 kg/ha, preemergence, rated 3-4 weeks after treatment
[5] = Rate 0.0620 kg/ha, preemergence, rated 3-4 weeks after treatment
[6] = Rate 0.1250 kg/ha, preemergence, rated 3-4 weeks after treatment
[7] = Rate 0.2500 kg/ha, preemergence, rated 3-4 weeks after treatment
[8] = 0.0313 kg/ha, preemergence, rated three to four weeks after treatment
[9] = 0.0625 kg/ha, preemergence, rated three to four weeks after treatment
[10] = 0.1250 kg/ha, preemergence, rated three to four weeks after treatment
[11] = 0.2500 kg/ha, preemergence, rated three to four weeks after treatment
[12] = 0.0313 kg/ha, preemergence weeds, rated three to four weeks after treatment
[13] = 0.0625 kg/ha, preemergence weeds, rated three to four weeks after treatment
[14] = 0.1250 kg/ha, preemergence weeds, rated three to four weeks after treatment
[15] = 0.2500 kg/ha, preemergence weeds, rated three to four weeks after treatment
Note: meaning of each grade not given here.

CCOC(=O)C1CCC(OC(=O)COc2ccc(C)cc2-c2nsc3ccc(-n4c(=O)cc(C(F)(F)F)n(C)c4=O)cc23)CC1 (single isomer, unassigned; isomer a) [Example 524, Acetic acid, {{2-{5-[3,6-dihydro-3-methyl-2,6-dioxo-4-(trifluoromethyl)-1(2H)-pyrimidinyl]-1,2-benzisothiazol-3-yl}-p-tolyl}oxy}-, ester with ethyl 4-hydroxycyclohexanecarboxylate, isomer A]
herbicidal effect rating, CYPSE [1, 4]: 0.0 | herbicidal effect rating, CYPSE [1, 5]: 0.0 | herbicidal effect rating, CYPSE [1, 6]: 2.0 | herbicidal effect rating, CYPSE [1, 7]: 6.0 | herbicidal effect rating, CYPIR (Cyperus iria; [4]): 2.0 | herbicidal effect rating, CYPIR (Cyperus iria; [5]): 2.0 | herbicidal effect rating, CYPIR (Cyperus iria; [6]): 4.0 | herbicidal effect rating, CYPIR (Cyperus iria; [7]): 7.0 | herbicidal effect rating, ECHORC [2, 4]: 7.0 | herbicidal effect rating, ECHORC [2, 5]: 9.0 | herbicidal effect rating, ECHORC [2, 6]: 9.0 | herbicidal effect rating, ECHORC [2, 7]: 9.0 | herbicidal effect rating, SAGPY (Sagittaria pygmaea, L.; [4]): 0.0 | herbicidal effect rating, SAGPY (Sagittaria pygmaea, L.; [5]): 0.0 | herbicidal effect rating, SAGPY (Sagittaria pygmaea, L.; [6]): 0.0 | herbicidal effect rating, SAGPY (Sagittaria pygmaea, L.; [7]): 0.0 | herbicidal effect rating, MOOVA [3, 4]: 9.0 | herbicidal effect rating, MOOVA [3, 5]: 9.0 | herbicidal effect rating, MOOVA [3, 6]: 9.0 | herbicidal effect rating, MOOVA [3, 7]: 9.0

CCOC(=O)C1CCC(OC(=O)COc2ccc(C)cc2-c2nsc3ccc(-n4c(=O)cc(C(F)(F)F)n(C)c4=O)cc23)CC1 (single isomer, unassigned; isomer b) [Example 525, Acetic acid, {{2-{5-[3,6-dihydro-3-methyl-2,6-dioxo-4-(trifluoromethyl)-1(2H)-pyrimidinyl)-1,2-benzisothiazol-3-yl}-p-tolyl}oxy}-, ester with ethyl 4-hydroxycyclohexanecarboxylate, isomer B]
herbicidal effect rating, CYPSE [1, 4]: 0.0 | herbicidal effect rating, CYPSE [1, 5]: 0.0 | herbicidal effect rating, CYPSE [1, 6]: 0.0 | herbicidal effect rating, CYPSE [1, 7]: 0.0 | herbicidal effect rating, CYPIR (Cyperus iria; [4]): 0.0 | herbicidal effect rating, CYPIR (Cyperus iria; [5]): 2.0 | herbicidal effect rating, CYPIR (Cyperus iria; [6]): 2.0 | herbicidal effect rating, CYPIR (Cyperus iria; [7]): 4.0 | herbicidal effect rating, ECHORC [2, 4]: 6.0 | herbicidal effect rating, ECHORC [2, 5]: 7.0 | herbicidal effect rating, ECHORC [2, 6]: 9.0 | herbicidal effect rating, ECHORC [2, 7]: 9.0 | herbicidal effect rating, SAGPY (Sagittaria pygmaea, L.; [4]): 0.0 | herbicidal effect rating, SAGPY (Sagittaria pygmaea, L.; [5]): 0.0 | herbicidal effect rating, SAGPY (Sagittaria pygmaea, L.; [6]): 0.0 | herbicidal effect rating, SAGPY (Sagittaria pygmaea, L.; [7]): 0.0 | herbicidal effect rating, MOOVA [3, 4]: 9.0 | herbicidal effect rating, MOOVA [3, 5]: 9.0 | herbicidal effect rating, MOOVA [3, 6]: 9.0 | herbicidal effect rating, MOOVA [3, 7]: 9.0

CC(=O)OCc1nsc2ccc(-n3c(=O)cc(C(F)(F)F)n(C)c3=O)cc12 [Example 32, 3-[3-(Hydroxymethyl)-1,2-benzisothiazol-5-yl]-1-methyl-6-(trifluoromethyl)-2,4(1H,3H)-pyrimidinedione, acetate ester]
herbicidal effect rating, CYPSE [1, 8]: 0.0 | herbicidal effect rating, CYPSE [1, 9]: 0.0 | herbicidal effect rating, CYPSE [1, 10]: 2.0 | herbicidal effect rating, CYPSE [1, 11]: 7.0 | herbicidal effect rating, CYPIR (Cyperus iria; [8]): 4.0 | herbicidal effect rating, CYPIR (Cyperus iria; [9]): 6.0 | herbicidal effect rating, CYPIR (Cyperus iria; [10]): 8.0 | herbicidal effect rating, CYPIR (Cyperus iria; [11]): 9.0 | herbicidal effect rating, ECHORC [2, 8]: 2.0 | herbicidal effect rating, ECHORC [2, 9]: 3.5 | herbicidal effect rating, ECHORC [2, 10]: 4.5 | herbicidal effect rating, ECHORC [2, 11]: 7.5 | herbicidal effect rating, SAGPY (Sagittaria pygmaea, L.; [8]): 0.0 | herbicidal effect rating, SAGPY (Sagittaria pygmaea, L.; [9]): 0.0 | herbicidal effect rating, SAGPY (Sagittaria pygmaea, L.; [10]): 2.0 | herbicidal effect rating, SAGPY (Sagittaria pygmaea, L.; [11]): 9.0 | herbicidal effect rating, MOOVA [3, 8]: 8.0 | herbicidal effect rating, MOOVA [3, 9]: 9.0 | herbicidal effect rating, MOOVA [3, 10]: 9.0 | herbicidal effect rating, MOOVA [3, 11]: 9.0

Cc1ccc(OCC(=O)n2cnc3ccccc32)c(-c2nsc3ccc(-n4c(=O)cc(C(F)(F)F)n(C)c4=O)cc23)c1 [Example 62]
herbicidal effect rating, CYPSE [1, 8]: 0.0 | herbicidal effect rating, CYPSE [1, 9]: 1.0 | herbicidal effect rating, CYPSE [1, 10]: 2.0 | herbicidal effect rating, CYPSE [1, 11]: 9.0 | herbicidal effect rating, CYPIR (Cyperus iria; [8]): 4.0 | herbicidal effect rating, CYPIR (Cyperus iria; [9]): 6.0 | herbicidal effect rating, CYPIR (Cyperus iria; [10]): 9.0 | herbicidal effect rating, CYPIR (Cyperus iria; [11]): 9.0 | herbicidal effect rating, ECHORC [2, 8]: 6.0 | herbicidal effect rating, ECHORC [2, 9]: 9.0 | herbicidal effect rating, ECHORC [2, 10]: 9.0 | herbicidal effect rating, ECHORC [2, 11]: 9.0 | herbicidal effect rating, SAGPY (Sagittaria pygmaea, L.; [8]): 0.0 | herbicidal effect rating, SAGPY (Sagittaria pygmaea, L.; [9]): 1.0 | herbicidal effect rating, SAGPY (Sagittaria pygmaea, L.; [10]): 4.0 | herbicidal effect rating, SAGPY (Sagittaria pygmaea, L.; [11]): 7.0 | herbicidal effect rating, MOOVA [3, 8]: 9.0 | herbicidal effect rating, MOOVA [3, 9]: 9.0 | herbicidal effect rating, MOOVA [3, 10]: 9.0 | herbicidal effect rating, MOOVA [3, 11]: 9.0

COC(=O)C=CCOc1ccc(C)cc1-c1nsc2ccc(-n3c(=O)cc(C(F)(F)F)n(C)c3=O)cc12 [Example 188, Methyl 4-{{2-{5-[3,6-dihydro-3-methyl-2,6-dioxo-4-(trifluoromethyl)-1(2H)-pyrimidinyl]-1,2-benzisothiazol-3-yl}-p-tolyl}oxy}-2-butenoate, (E)- and (Z)-]
herbicidal effect rating, CYPSE [1, 12]: 0.0 | herbicidal effect rating, CYPIR (Cyperus iria; [12]): 0.0 | herbicidal effect rating, CYPIR (Cyperus iria; [13]): 0.0 | herbicidal effect rating, CYPIR (Cyperus iria; [14]): 0.0 | herbicidal effect rating, CYPIR (Cyperus iria; [15]): 0.0 | herbicidal effect rating, ECHORC [2, 12]: 0.0 | herbicidal effect rating, ECHORC [2, 13]: 0.0 | herbicidal effect rating, ECHORC [2, 14]: 2.0 | herbicidal effect rating, ECHORC [2, 15]: 8.0 | herbicidal effect rating, SAGPY (Sagittaria pygmaea, L.; [12]): 0.0 | herbicidal effect rating, SAGPY (Sagittaria pygmaea, L.; [13]): 0.0 | herbicidal effect rating, SAGPY (Sagittaria pygmaea, L.; [14]): 0.0 | herbicidal effect rating, SAGPY (Sagittaria pygmaea, L.; [15]): 0.0 | herbicidal effect rating, MOOVA [3, 12]: 9.0 | herbicidal effect rating, MOOVA [3, 13]: 9.0 | herbicidal effect rating, MOOVA [3, 14]: 9.0 | herbicidal effect rating, MOOVA [3, 15]: 9.0

CC(C)=NOC(=O)COc1ccc(C)cc1-c1nsc2ccc(-n3c(=O)cc(C(F)(F)F)n(C)c3=O)cc12 [Example 194]
herbicidal effect rating, CYPSE [1, 12]: 0.0 | herbicidal effect rating, CYPSE [1, 13]: 0.0 | herbicidal effect rating, CYPSE [1, 14]: 0.0 | herbicidal effect rating, CYPSE [1, 15]: 0.0 | herbicidal effect rating, CYPIR (Cyperus iria; [12]): 0.0 | herbicidal effect rating, CYPIR (Cyperus iria; [13]): 0.0 | herbicidal effect rating, CYPIR (Cyperus iria; [14]): 0.0 | herbicidal effect rating, CYPIR (Cyperus iria; [15]): 0.0 | herbicidal effect rating, ECHORC [2, 12]: 0.0 | herbicidal effect rating, ECHORC [2, 13]: 2.0 | herbicidal effect rating, ECHORC [2, 14]: 6.0 | herbicidal effect rating, ECHORC [2, 15]: 9.0 | herbicidal effect rating, SAGPY (Sagittaria pygmaea, L.; [12]): 0.0 | herbicidal effect rating, SAGPY (Sagittaria pygmaea, L.; [13]): 0.0 | herbicidal effect rating, SAGPY (Sagittaria pygmaea, L.; [14]): 0.0 | herbicidal effect rating, SAGPY (Sagittaria pygmaea, L.; [15]): 0.0 | herbicidal effect rating, MOOVA [3, 12]: 9.0 | herbicidal effect rating, MOOVA [3, 13]: 9.0 | herbicidal effect rating, MOOVA [3, 14]: 9.0 | herbicidal effect rating, MOOVA [3, 15]: 9.0
